US7250425B2, “8-aza-bicyclo[3.2.1]octane derivatives and their use as monoamine neurotransmitter re-uptake inhibitors” (priority 2003, dated 2007)
Where a name gives a salt, the structure may show the parent alone.

Assays:
[1] = target: T1, reuptake of dopamine (DA) in synaptosomes (Rattus norvegicus, UniProt P23977); assay: In vitro inhibition of dopamine reuptake in synaptosomes; format: biochemical
T1 construct: in synaptosomes as described in WO 97/16451; from tissue
Method: (§1) A number of compounds were tested for their ability to Inhibit the reuptake of the monoamine neurotransmitters dopamine (DA) noradrenaline(NA) and serotonin (5-HT) in synaptosomes as described in WO 97/16451.
(§2) The test values are given as IC50 (the concentration (μM) of the test substance which inhibits the specific binding of ^3H-DA, ^3H-NA, or 3H-5-HT by 50%).

[2] = target: T2, reuptake of serotonin (5-HT) in synaptosomes (Rattus norvegicus, UniProt P31652); assay: In vitro inhibition of serotonin reuptake in synaptosomes; format: biochemical
T2 construct: in synaptosomes as described in WO 97/16451; from tissue
Method: as §1, §2

T2 sequence (P31652 whole entry): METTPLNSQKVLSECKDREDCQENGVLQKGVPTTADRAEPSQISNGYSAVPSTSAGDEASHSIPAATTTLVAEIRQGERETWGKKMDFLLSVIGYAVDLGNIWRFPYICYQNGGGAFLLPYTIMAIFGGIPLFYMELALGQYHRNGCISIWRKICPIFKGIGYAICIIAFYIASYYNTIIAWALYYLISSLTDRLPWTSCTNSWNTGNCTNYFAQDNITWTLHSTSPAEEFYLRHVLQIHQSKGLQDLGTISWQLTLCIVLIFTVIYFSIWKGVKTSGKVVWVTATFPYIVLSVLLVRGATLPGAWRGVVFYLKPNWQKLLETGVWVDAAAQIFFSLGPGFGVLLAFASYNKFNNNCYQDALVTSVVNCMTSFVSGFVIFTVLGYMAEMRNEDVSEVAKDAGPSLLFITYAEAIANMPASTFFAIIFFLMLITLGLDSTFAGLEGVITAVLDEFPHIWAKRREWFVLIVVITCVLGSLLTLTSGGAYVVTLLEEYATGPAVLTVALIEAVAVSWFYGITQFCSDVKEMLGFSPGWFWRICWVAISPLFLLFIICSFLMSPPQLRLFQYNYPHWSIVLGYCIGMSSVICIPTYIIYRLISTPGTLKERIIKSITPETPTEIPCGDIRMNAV
T1 sequence (P23977 whole entry): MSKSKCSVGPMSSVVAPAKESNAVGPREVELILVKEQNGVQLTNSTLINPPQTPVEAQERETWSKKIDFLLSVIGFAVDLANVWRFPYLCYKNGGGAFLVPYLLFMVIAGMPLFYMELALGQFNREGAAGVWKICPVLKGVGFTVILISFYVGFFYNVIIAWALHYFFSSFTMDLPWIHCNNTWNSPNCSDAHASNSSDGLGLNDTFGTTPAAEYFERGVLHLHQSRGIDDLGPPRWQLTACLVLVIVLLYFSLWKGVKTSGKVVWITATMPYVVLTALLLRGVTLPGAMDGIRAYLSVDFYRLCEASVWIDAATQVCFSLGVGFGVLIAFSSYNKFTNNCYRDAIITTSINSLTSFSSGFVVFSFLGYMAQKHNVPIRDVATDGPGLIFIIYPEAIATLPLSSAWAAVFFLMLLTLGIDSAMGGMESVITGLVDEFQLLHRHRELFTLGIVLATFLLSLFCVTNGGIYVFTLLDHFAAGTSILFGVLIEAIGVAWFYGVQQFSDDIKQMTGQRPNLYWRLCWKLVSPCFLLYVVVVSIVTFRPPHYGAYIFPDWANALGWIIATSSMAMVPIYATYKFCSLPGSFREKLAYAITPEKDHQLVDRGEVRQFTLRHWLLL

SMILES | IC50 [1] [µM] | IC50 [2] [µM]
Clc1cccc(C2CC3CCC(N3)C2COc2cccc(Cl)c2Cl)c1 [1st compound of method E, (2R,3S)-2-(2,3-Dichlorophenoxymethyl)-8-H-3-(3-chlorophenyl)-8-aza-bicyclo[3.2.1]octane fumaric acid salt] | 0.1 | 0.0062
Clc1cccc(C2CC3CCC(N3)C2COc2cccc3ccccc23)c1 [2nd compound of method E, (2R,3S)-2-(1-naphthyloxymethyl)-8-H-3-(3-chlorophenyl)-8-aza-bicyclo[3.2.1]octane fumaric acid salt] | 0.088 | 0.013
CN1C2CCC1[C@H](COc1cccc(Cl)c1Cl)[C@@H](c1cccc(Cl)c1)C2 (stereo partly drawn) [1st compound of method D, (2R,3S)-2-(2,3-Dichlorophenoxymethyl)-8-methyl-3-(3-chlorophenyl)-8-aza-bicyclo[3.2.1]octane fumaric acid salt] | 0.062 | 0.00072
